Measured values reported in ChEMBL document CHEMBL4480391, “Discovery and synthesis of sulfur-containing 6-substituted 5,8-dimethoxy-1,4-naphthoquinone oxime derivatives as new and potential anti-MDR cancer agents” (Eur J Med Chem, 2019).
pIC50: −log10 of the molar value. Calls of active or inactive are those of the source. The rule behind the calls is not given here.

How the values were obtained:
HCT-15 [1] = assay: Cytotoxicity against human HCT15 cells after 72 hrs by MTT assay; type: functional, cell-based; settings: HCT-15, 72 h
MGC-803 [2] = assay: Cytotoxicity against human MGC803 cells after 72 hrs by MTT assay; type: functional, cell-based; settings: MGC-803, 72 h
K562 [3] = assay: Cytotoxicity against human K562 cells after 72 hrs by MTT assay; type: functional, cell-based; settings: K562, 72 h
[4] = Cytotoxicity against human HSF cells after 72 hrs by MTT assay; type: cell-based
[5] = Selectivity index, ratio of IC50 for human HSF cells to IC50 for human HCT15 cells; type: toxicity; settings: HSF cells versus HCT15 cells, read-out: Ratio IC50
HCT-15 [6] = assay: Potency index, ratio of shikonin IC50 to test compound IC50 for human HCT15 cells; type: functional
MGC-803 [7] = assay: Potency index, ratio of shikonin IC50 to test compound IC50 for human MGC803 cells; type: functional
K562 [8] = assay: Potency index, ratio of shikonin IC50 to test compound IC50 for human K562 cells; type: functional
[9] = Cytotoxicity against human […] cells after 72 hrs by MTT assay; type: functional, cell-based
Bel7402/5-FU [10] = assay: Cytotoxicity against human Bel7402/5-FU cells after 72 hrs by MTT assay; type: functional, cell-based
MCF7 = assay: Cytotoxicity against human MCF7 cells after 72 hrs by MTT assay; type: functional, cell-based; settings: MCF7, 72 h
NCI/ADR-RES = assay: Cytotoxicity against human MCF7/ADR cells after 72 hrs by MTT assay; type: functional, cell-based
A549 = assay: Cytotoxicity against human A549 cells after 72 hrs by MTT assay; type: functional, cell-based; settings: A549, 72 h
A549/TR = assay: Cytotoxicity against human A549/TAX cells after 72 hrs by MTT assay; type: functional, cell-based
[11] = Selectivity ratio of IC50 for human […] cells to IC50 for human Bel7402/5-FU cells; type: functional
[12] = Selectivity ratio of IC50 for human MCF7 cells to IC50 for human MCF7/ADR cells; type: functional
[13] = Selectivity ratio of IC50 for human A549 cells to IC50 for human A549/TAX cells; type: functional
Bel7402/5-FU [14] = assay: Inhibition of colony formation in human Bel7402/5-FU cells up to 4 uM measured after 10 days by giemsa staining based assay; type: functional, cell-based
Bel7402/5-FU [15] = assay: Cell cycle arrest in human Bel7402/5-FU cells assessed as decrease in accumulation at S phase at 0.25 to 1 uM measured after 24 hrs by propidium iodide staining based flow cytometry; type: functional
Bel7402/5-FU [16] = assay: Cell cycle arrest in human Bel7402/5-FU cells assessed as decrease in accumulation at G2/M phase at 0.25 to 1 uM measured after 24 hrs by propidium iodide staining based flow cytometry; type: functional
Bel7402/5-FU [17] = assay: Cell cycle arrest in human Bel7402/5-FU cells assessed as accumulation at G1 phase at 0.25 uM measured after 24 hrs by propidium iodide staining based flow cytometry (reference value: 26.32%); type: functional
Bel7402/5-FU [18] = assay: Cell cycle arrest in human Bel7402/5-FU cells assessed as accumulation at G1 phase at 0.5 uM measured after 24 hrs by propidium iodide staining based flow cytometry (reference value: 26.32%); type: functional
Bel7402/5-FU [19] = assay: Cell cycle arrest in human Bel7402/5-FU cells assessed as accumulation at G1 phase at 1 uM measured after 24 hrs by propidium iodide staining based flow cytometry (reference value: 26.32%); type: functional
Bel7402/5-FU [20] = assay: Cell cycle arrest in human Bel7402/5-FU cells assessed as increase in accumulation at G1 phase measured after 24 hrs by propidium iodide staining based flow cytometry; type: functional
Bel7402/5-FU [21] = assay: Induction of apoptosis in human Bel7402/5-FU cells assessed as cell shrinkage at 0.5 to 2 uM measured after 24 hrs by Hoechst 33342/propidium iodide staining based fluorescence microscopy; type: functional
Bel7402/5-FU [22] = assay: Induction of apoptosis in human Bel7402/5-FU cells assessed as nuclear fragmentation at 0.5 to 2 uM measured after 24 hrs by Hoechst 33342/propidium iodide staining based fluorescence microscopy; type: functional, cell-based
Bel7402/5-FU [23] = assay: Induction of apoptosis in human Bel7402/5-FU cells measured after 24 hrs by Annexin V-FITC/propidium iodide staining based flow cytometry; type: functional, cell-based
Bel7402/5-FU [24] = assay: Induction of apoptosis in human Bel7402/5-FU cells assessed as viable cells at 0.5 uM measured after 24 hrs by Annexin V-FITC/propidium iodide staining based flow cytometry (reference value: 89%); type: functional; settings: read-out: Activity
Bel7402/5-FU [25] = assay: Induction of apoptosis in human Bel7402/5-FU cells assessed as early apoptotic cells at 0.5 uM measured after 24 hrs by Annexin V-FITC/propidium iodide staining based flow cytometry (reference value: 2.8%); type: functional
Bel7402/5-FU [26] = assay: Induction of apoptosis in human Bel7402/5-FU cells assessed as late apoptotic cells at 0.5 uM measured after 24 hrs by Annexin V-FITC/propidium iodide staining based flow cytometry (reference value: 8.05%); type: functional
Bel7402/5-FU [27] = assay: Induction of apoptosis in human Bel7402/5-FU cells assessed as necrotic cells at 0.5 uM measured after 24 hrs by Annexin V-FITC/propidium iodide staining based flow cytometry (reference value: 0.137%); type: functional
Bel7402/5-FU [28] = assay: Induction of apoptosis in human Bel7402/5-FU cells assessed as viable cells at 1 uM measured after 24 hrs by Annexin V-FITC/propidium iodide staining based flow cytometry (reference value: 89%); type: functional; settings: read-out: Activity
Bel7402/5-FU [29] = assay: Induction of apoptosis in human Bel7402/5-FU cells assessed as early apoptotic cells at 1 uM measured after 24 hrs by Annexin V-FITC/propidium iodide staining based flow cytometry (reference value: 2.8%); type: functional
Bel7402/5-FU [30] = assay: Induction of apoptosis in human Bel7402/5-FU cells assessed as late apoptotic cells at 1 uM measured after 24 hrs by Annexin V-FITC/propidium iodide staining based flow cytometry (reference value: 8.05%); type: functional
Bel7402/5-FU [31] = assay: Induction of apoptosis in human Bel7402/5-FU cells assessed as necrotic cells at 1 uM measured after 24 hrs by Annexin V-FITC/propidium iodide staining based flow cytometry (reference value: 0.137%); type: functional
Bel7402/5-FU [32] = assay: Induction of apoptosis in human Bel7402/5-FU cells assessed as viable cells at 2 uM measured after 24 hrs by Annexin V-FITC/propidium iodide staining based flow cytometry (reference value: 89%); type: functional; settings: read-out: Activity
Bel7402/5-FU [33] = assay: Induction of apoptosis in human Bel7402/5-FU cells assessed as early apoptotic cells at 2 uM measured after 24 hrs by Annexin V-FITC/propidium iodide staining based flow cytometry (reference value: 2.8%); type: functional
Bel7402/5-FU [34] = assay: Induction of apoptosis in human Bel7402/5-FU cells assessed as late apoptotic cells at 2 uM measured after 24 hrs by Annexin V-FITC/propidium iodide staining based flow cytometry (reference value: 8.05%); type: functional
Bel7402/5-FU [35] = assay: Induction of apoptosis in human Bel7402/5-FU cells assessed as necrotic cells at 2 uM measured after 24 hrs by Annexin V-FITC/propidium iodide staining based flow cytometry (reference value: 0.137%); type: functional
Bel7402/5-FU [36] = assay: Induction of apoptosis in human Bel7402/5-FU cells assessed as increase in ratio of Bax/Bcl2 level at 0.5 to 4 uM measured after 24 to 48 hrs by Western blot analysis; type: functional, cell-based

CCCCCCCCC(SC(=O)/C=C/c1ccccc1)c1cc(OC)c2c(c1OC)/C(=N/O)C=C/C2=N\O (stereo not drawn)
pIC50 (HCT-15 [1]): 6.42
pIC50 (MGC-803 [2]): 6.10
pIC50 (K562 [3]): 6.34
pIC50 [4]: < 4.30
selectivity ratio [5]: > 132
Ratio IC50 (HCT-15 [6]): 2
Ratio IC50 (MGC-803 [7]): 2
Ratio IC50 (K562 [8]): 2
pIC50 [9]: 6.38
pIC50 (Bel7402/5-FU [10]): 6.54
pIC50 (MCF7): 4.95
pIC50 (NCI/ADR-RES): 5.88
pIC50 (A549): 5.18
pIC50 (A549/TR): 6.14
Ratio IC50 [11]: 1.45
Ratio IC50 [12]: 8.37
Ratio IC50 [13]: 9.13
inhibition (Bel7402/5-FU [14]): Active
Activity (Bel7402/5-FU [15]): Active
Activity (Bel7402/5-FU [16]): Active
Activity (Bel7402/5-FU [17]): 35.56%
Activity (Bel7402/5-FU [18]): 44.5%
Activity (Bel7402/5-FU [19]): 50.69%
Activity (Bel7402/5-FU [20]): Dose-dependent effect
Activity (Bel7402/5-FU [21]): Active
Activity (Bel7402/5-FU [22]): Active
Activity (Bel7402/5-FU [23]): Dose-dependent effect
viability at 0.5 µM (Bel7402/5-FU [24]): 64.4%
Activity (Bel7402/5-FU [25]): 22.1%
Activity (Bel7402/5-FU [26]): 12.3%
Activity (Bel7402/5-FU [27]): 1.17%
viability at 1 µM (Bel7402/5-FU [28]): 47.9%
Activity (Bel7402/5-FU [29]): 32.2%
Activity (Bel7402/5-FU [30]): 15.2%
Activity (Bel7402/5-FU [31]): 4.64%
viability at 2 µM (Bel7402/5-FU [32]): 10.7%
Activity (Bel7402/5-FU [33]): 58.3%
Activity (Bel7402/5-FU [34]): 29.2%
Activity (Bel7402/5-FU [35]): 1.7%
Activity (Bel7402/5-FU [36]): Active

CCCCCCCC(SCCC(C)C)c1cc(OC)c2c(c1OC)/C(=N/O)C=C/C2=N\O (stereo not drawn)
pIC50 (HCT-15 [1]): 6.09
pIC50 (MGC-803 [2]): 5.87
pIC50 (K562 [3]): 6.00
pIC50 [4]: < 4.30
selectivity ratio [5]: > 61
pIC50 [9]: 5.35
pIC50 (Bel7402/5-FU [10]): 5.53
pIC50 (MCF7): 4.41
pIC50 (NCI/ADR-RES): 4.73
pIC50 (A549): 4.61
pIC50 (A549/TR): 5.34
Ratio IC50 [11]: 1.53
Ratio IC50 [12]: 2.09
Ratio IC50 [13]: 5.38

CCCCCCCCC(SCCC(C)C)c1cc(OC)c2c(c1OC)/C(=N/O)C=C/C2=N\O (stereo not drawn)
pIC50 (HCT-15 [1]): 6.27
pIC50 (MGC-803 [2]): 5.96
pIC50 (K562 [3]): 6.12
pIC50 [4]: < 4.30
selectivity ratio [5]: > 92.6
pIC50 [9]: 5.64
pIC50 (Bel7402/5-FU [10]): 6.14
pIC50 (MCF7): 4.47
pIC50 (NCI/ADR-RES): 4.86
pIC50 (A549): 4.72
pIC50 (A549/TR): 5.93
Ratio IC50 [11]: 3.16
Ratio IC50 [12]: 2.41
Ratio IC50 [13]: 16
